The values that follow come from patent EP4741395A1, “NOVEL COMPOUND SENSITIVE TO NITROGEN MONOXIDE AND PHARMACEUTICAL COMPOSITION COMPRISING SAME” (Omniamed Co. Ltd, priority 2023, dated 2025).

The test system of one data set is IFN-γ. The data set is described as follows: IFN-γ reduction activity in Concanavalin A-treated splenocytes (quantitative ELISA). To be noted: Mus musculus, Splenocyte, Concanavalin A 5 µg/mL, 72 hours, read-out: IFN-γ Reduction Activity (%) (Mean±SD). The format is cell-based, C57BL/6 mouse. An outline of the steps: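 Splenocytes from 8-week-old C57BL/6 mice at 5×10^6 cells/mL in RPMI 1640 with 10% FBS, stimulated with Concanavalin A (5 µg/mL) plus compound added concentration-dependently. Supernatant IFN-γ measured by quantitative ELISA after 72 h.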
A general note: In an ELISA, binding on a coated surface is turned into a signal by an enzyme label.

In another data set the target is T1, JAK 2 (Homo sapiens, UniProt O60674).
T1 construct: purchased Eurofins Scientific (assay service)
Put plainly: JAK Human TK kinase enzymatic radiometric assay (Eurofins), JAK 2. The format is biochemical. Set-up: unit not given here. The note with it: value close to 100 indicates low JAK activity of the compound. The text has this:
(§1) For the compounds of the Examples, JAK activity of each of the compounds was verified using the JAK Human TK Kinase Enzymatic Radiometric Kinase Profiler Assay service provided by Eurofins Scientific.
(§2) The activity was verified after inducing a reaction at the JAK 1, 2 and 3 active sites using radioactively labeled ATP.

For a further data set, the target named is T2, JAK 3 (Homo sapiens, UniProt P52333).
T2 construct: purchased Eurofins Scientific (assay service)
T2 sequence (P52333 1-1124): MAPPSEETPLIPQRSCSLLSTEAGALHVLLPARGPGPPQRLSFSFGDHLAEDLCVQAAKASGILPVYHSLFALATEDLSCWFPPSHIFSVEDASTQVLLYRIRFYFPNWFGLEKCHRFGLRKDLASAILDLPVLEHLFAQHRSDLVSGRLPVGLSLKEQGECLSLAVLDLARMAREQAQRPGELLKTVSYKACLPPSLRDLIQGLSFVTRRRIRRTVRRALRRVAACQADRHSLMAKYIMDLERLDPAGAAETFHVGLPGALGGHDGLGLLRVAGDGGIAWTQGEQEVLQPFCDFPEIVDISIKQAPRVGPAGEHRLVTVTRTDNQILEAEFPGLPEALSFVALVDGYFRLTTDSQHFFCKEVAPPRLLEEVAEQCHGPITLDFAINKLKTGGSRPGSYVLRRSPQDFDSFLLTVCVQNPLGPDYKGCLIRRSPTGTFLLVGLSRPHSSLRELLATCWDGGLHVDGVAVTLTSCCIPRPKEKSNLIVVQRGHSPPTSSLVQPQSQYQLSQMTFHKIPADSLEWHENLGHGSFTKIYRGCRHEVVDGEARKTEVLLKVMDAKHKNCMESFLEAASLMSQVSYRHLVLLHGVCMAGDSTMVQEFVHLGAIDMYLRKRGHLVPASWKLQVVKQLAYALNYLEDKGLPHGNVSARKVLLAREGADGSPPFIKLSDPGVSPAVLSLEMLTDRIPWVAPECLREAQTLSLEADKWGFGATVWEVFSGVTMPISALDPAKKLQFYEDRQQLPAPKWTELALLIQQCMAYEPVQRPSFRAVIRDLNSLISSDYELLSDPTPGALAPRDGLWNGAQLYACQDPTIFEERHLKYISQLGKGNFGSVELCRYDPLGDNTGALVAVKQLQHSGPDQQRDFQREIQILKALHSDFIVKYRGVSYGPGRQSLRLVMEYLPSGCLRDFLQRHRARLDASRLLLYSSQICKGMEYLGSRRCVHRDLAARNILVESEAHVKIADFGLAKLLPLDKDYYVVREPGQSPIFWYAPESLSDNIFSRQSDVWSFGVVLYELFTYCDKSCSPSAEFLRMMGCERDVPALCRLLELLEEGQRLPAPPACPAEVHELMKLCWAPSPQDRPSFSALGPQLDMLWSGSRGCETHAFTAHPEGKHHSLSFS
The data set is described as follows: JAK Human TK kinase enzymatic radiometric assay (Eurofins), JAK 3. The class given is biochemical. To be noted: value close to 100 indicates low JAK activity of the compound. Set-up: unit not given here.
Source text: as §1, §2

Data set [1] in a line: Efficacy on collagen-induced rheumatoid arthritis (arthritis score). The class given is in vivo, DBA/1 male mice. The protocol: The experimental animals were 30 8-week-old DBA/1 male mice. […] The number of normal mice was set to five in order to minimize the number of experimental animals. The group administered with Compound (1) consisted of 5 to 6 mice, a minimal number required to obtain statistically meaningful data given the limited amount of the drug.
(§3) In order to establish a rheumatoid arthritis model, 100 µL of a mixture solution in which 2 mg/mL of chick type II collagen and 1 mg/mL of Complete Freund's Adjuvant (CFA) were mixed in a ratio of 1:1 was administered intradermally to each of the mouse tails. After 19 days, 100 µL of an emulsion in which 2 mg/mL of chick type II collagen and Incomplete Freund's Adjuvant (IFA) were mixed in a ratio of 1:1 was administered intradermally to each of the mouse tails.
The test substances of Table 23 were administered orally every day according to the drug dosing period and dosing frequency. As for the rheumatoid arthritis score (arthritis score), the score of each of the four paws was quantified according to the criteria shown in the following Table 24, and the individual scores were summed to generate the final score.
The experimental animals were 31 8-week-old DBA/1 male mice. […] The number of normal mice was set to five in order to minimize the number of experimental animals. The group administered with Compound (11) consisted of 5 mice, a minimal number required to obtain statistically meaningful data given the limited amount of the drug. Each of the remaining groups consisted of 7 mice, with two extra mice added to account for experimental error.
as §3
Oral administration was conducted daily according to the dose, dosing frequency and dosing period of Table 25. Based on the criteria shown in Table 24, rheumatoid arthritis score for the four paws were quantified and summed to generate the score.

Data set [2] can be described thus: Hematological toxicity evaluation after single oral administration (routine blood test). To be noted: single oral dose 200 mg/kg and 800 mg/kg, compared with the normal group.

T1 sequence (O60674 whole entry): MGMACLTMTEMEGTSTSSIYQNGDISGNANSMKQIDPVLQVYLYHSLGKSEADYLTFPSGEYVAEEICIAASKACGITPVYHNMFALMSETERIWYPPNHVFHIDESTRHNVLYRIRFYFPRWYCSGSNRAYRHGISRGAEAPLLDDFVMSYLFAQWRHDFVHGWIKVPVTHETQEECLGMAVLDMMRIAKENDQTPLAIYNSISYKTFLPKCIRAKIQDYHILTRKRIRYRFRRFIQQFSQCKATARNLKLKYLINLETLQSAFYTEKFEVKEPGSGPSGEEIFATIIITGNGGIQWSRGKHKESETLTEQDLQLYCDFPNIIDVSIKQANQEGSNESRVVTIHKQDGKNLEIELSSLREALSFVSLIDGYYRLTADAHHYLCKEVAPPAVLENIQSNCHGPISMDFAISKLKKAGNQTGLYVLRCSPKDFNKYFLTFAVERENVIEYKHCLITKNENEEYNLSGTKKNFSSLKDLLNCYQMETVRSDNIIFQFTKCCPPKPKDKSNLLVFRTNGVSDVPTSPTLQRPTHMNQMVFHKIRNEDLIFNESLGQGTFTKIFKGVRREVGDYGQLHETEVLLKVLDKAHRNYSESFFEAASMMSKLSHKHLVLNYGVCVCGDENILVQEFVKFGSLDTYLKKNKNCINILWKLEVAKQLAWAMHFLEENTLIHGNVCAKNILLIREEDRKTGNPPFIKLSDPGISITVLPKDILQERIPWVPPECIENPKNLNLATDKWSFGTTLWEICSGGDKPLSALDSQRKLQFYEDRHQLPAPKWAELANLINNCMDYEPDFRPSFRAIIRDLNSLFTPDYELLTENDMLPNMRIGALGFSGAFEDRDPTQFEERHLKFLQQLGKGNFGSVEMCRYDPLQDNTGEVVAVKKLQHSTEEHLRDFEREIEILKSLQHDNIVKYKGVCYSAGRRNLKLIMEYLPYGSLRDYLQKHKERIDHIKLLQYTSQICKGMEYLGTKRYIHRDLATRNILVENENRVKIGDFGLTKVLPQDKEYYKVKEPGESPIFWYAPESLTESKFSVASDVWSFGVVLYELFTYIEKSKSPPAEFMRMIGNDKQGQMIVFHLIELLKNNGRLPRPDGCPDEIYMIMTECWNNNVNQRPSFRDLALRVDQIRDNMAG

Consider `C[C@@H]1CCN(C(=O)CC#N)C[C@@H]1N(C)c1ncnc2c1ccn2C(=O)Nc1ccccc1N` [Example 1, N-(2-aminophenyl)-4-(((3R,4R)-1-(2-cyanoacetyl)-4-methylpiperidin-3-yl) (methyl)amino)-7H-pyrrolo[2,3-d]pyrimidine-7-carboxamide], for which the activity at 10 µM in the data set on IFN-γ was determined as 91.5 ± 1.37%. The “JAK 2 Activity” value at JAK 2 (0.1 nM) was determined as 100; at JAK 2 (1 nM), 92; at JAK 2 (10 nM) it was 69; at JAK 2 (100 nM), 16. Besides, the “JAK 3 Activity” value at JAK 3 (0.1 nM) was determined as 94; on JAK 3 (1 nM) it was 95; on JAK 3 (10 nM) it was 55; at JAK 3 (100 nM), 16. The “alleviation of rheumatoid arthritis compared with tofacitinib” value in data set [1] (30 mg/kg and 60 mg/kg oral once daily, entire period of the experiment) was “comparable to or higher than 40 mg/kg of tofacitinib”. The “average rheumatoid arthritis score compared with tofacitinib” value in data set [1] (30 mg/kg oral once daily, FIG. 6) was “comparable to that of the group administered with 40 mg/kg of tofacitinib”. Moreover, the “rheumatoid arthritis-alleviating efficacy (arthritis score)” value in data set [1] (30 mg/kg oral once daily, day 42 to day 47 after disease induction, FIG. 6) is on record as “no statistically significant alleviating efficacy was observed”; in data set [1] (30 mg/kg oral once daily, day 49 to the end of the experiment (p<0.05), FIG. 6), “statistically significant alleviating efficacy was observed again”; in data set [1] (30 mg/kg oral once daily, from day 35 after disease induction (p<0.05), FIG. 6) it was “Alleviating efficacy was observed”. Further, the “rheumatoid arthritis-alleviating efficacy compared with tofacitinib” value in data set [1] (60 mg/kg oral once daily, from day 33 after disease induction (p<0.01) to the end, FIG. 6) is “comparable to or higher than that of the group administered with 40 mg/kg of tofacitinib”. For the same compound, the hematological toxicity responses result in data set [2] is given as “No hematological toxicity responses were observed”.
